Experimental data: patent US7750011B2, “Diazabicyclic aryl derivatives and their medical use” (Neurosearch A/S, priority 2005, dated 2010)
Structures can show the parent of a compound that is named as a salt.

Target: T1, α7-subtype of nicotinic receptors (Rattus norvegicus, UniProt Q05941)
T1 construct: Cerebral cortices from male Wistar rats (150-250 g) are homogenised; from tissue; host or cells: rat cerebral cortex membrane homogenate (male Wistar rats)
Assay: In vitro inhibition of 3H-α-bungarotoxine binding in rat brain
Conditions: rat cerebral cortex homogenate; 3H-α-bungarotoxine 2 nM; 2 hours at 37° C

T1 sequence (Q05941 23-502): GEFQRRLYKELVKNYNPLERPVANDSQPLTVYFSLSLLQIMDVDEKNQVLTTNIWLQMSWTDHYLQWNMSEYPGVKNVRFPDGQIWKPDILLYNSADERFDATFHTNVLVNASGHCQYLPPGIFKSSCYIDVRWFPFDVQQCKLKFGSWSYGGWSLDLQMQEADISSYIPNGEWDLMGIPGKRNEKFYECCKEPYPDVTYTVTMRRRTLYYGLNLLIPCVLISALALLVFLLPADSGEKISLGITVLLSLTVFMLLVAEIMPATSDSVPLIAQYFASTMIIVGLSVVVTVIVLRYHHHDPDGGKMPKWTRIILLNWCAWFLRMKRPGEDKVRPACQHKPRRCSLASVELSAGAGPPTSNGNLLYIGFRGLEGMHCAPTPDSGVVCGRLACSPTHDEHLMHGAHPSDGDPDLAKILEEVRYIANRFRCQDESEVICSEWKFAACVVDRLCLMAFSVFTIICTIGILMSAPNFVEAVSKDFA

**Q.** `CN1C[C@@H]2C[C@H]1CN2c1ccc(C#Cc2ccccc2)nn1` [Compound 2, 2-Methyl-5-(6-phenylethynyl-pyridazin-3-yl)-(1S,4S)-2,5-diaza-bicyclo[2.2.1]heptane fumaric acid salt] was tested. Which IC50 did it give?
**A.** 2 µM
